We go through 61 compounds from patent US9845297B2, “Antimicrobial compounds and methods of making and using the same” (Melinta Therapeutics, Inc., priority 2009, dated 2017).

Molecules are shown by their SMILES.

For one assay, the system named is Eschericia coli strain ATCC25922. Put plainly: standard microdilution assay to determine minimum inhibitory concentrations (MICs). Format: cell-based. The settings on record: Escherichia coli, ATCC25922, Eschericia coli strain ATCC25922, standard microdilution assay; read-out: E. coli ATCC25922 MIC. How it is done: Minimum inhibitory concentrations (MICs) are determined by the microdilution method, typically in a final volume of 100 microliters, according to protocols outlined by The Clinical and Laboratory Standards Institute [CLSI; formerly the National Committee for Clinical Laboratory Standards (NCCLS)]. See CLSI: Methods for dilution antimicrobial susceptibility tests for bacteria that grow aerobically; approved standard-fifth edition. Wayne, Pa.: NCCLS; 2000. The assays can be also be performed in microtiter trays according to conventional methodologies as published by the CLSI. See CLSI. Methods for Dilution Antimicrobial Susceptibility Tests for Bacteria That Grow Aerobically; Approved Standard-Seventh Edition. CLSI Document M7-A7 [ISBN 1-56238-587-9] CLSI, 940 West Valley Road, Suite 1400, Wayne Pa. 19087-1898 USA, 2006).
The compounds of the present invention were tested for antimicrobial activity. The compounds were run against Eschericia coli strain ATCC25922 using a standard microdilution assay to determine minimum inhibitory concentrations (MICs). […] A “N/A” means that data is unavailable. It will be recognized by one skilled in the art that the compounds can be assessed against other bacterial organisms and that the presentation of data for activity against Eschericia coli is illustrative and in no way is intended to limit the scope of the present invention. The compounds of the present invention can be assayed against a range of other microorganisms depending upon the performance activity desired to be gathered. Furthermore, the “+”, “−”, and “N/A” representation and the selection of a cutoff value of 16 micrograms/ml is also illustrative and in no way is intended to limit the scope of the present invention.
The term MIC denotes the lowest concentration that inhibits growth of the organism. Take `N=C(N)NCCCCCN1CCN(c2c[nH]c(NC(=O)Nc3ccccc3OC(F)(F)F)nc2=O)CC1` [Compound 519]: the minimal inhibitory concentration (MIC) was greater than 16 µg/mL.

As for `CN1CCN(c2ccc(NC(=O)Nc3ccn(CCCC(CCCNC(=N)N)NCCCN)c(=O)n3)cc2)CC1` (stereo not shown) [Compound 185], the MIC was less than 16 µg/mL.

As to `N=C(N)NCCCCN[C@@H](CCCNC(=N)N)CCCn1ccc(NC(N)=O)nc1=O` [Compound 134], the MIC is greater than 16 µg/mL.

For `N=C(N)NCCCN1CCN(C(=O)Cc2c[nH]c(NC(=O)Nc3ccccc3OC(F)(F)F)nc2=O)CC1` [Compound 429], the MIC is greater than 16 µg/mL.

For the compound `CN1CCN(c2ccc(NC(=O)Nc3nc(=O)c(-c4ccc(CN(CCCN)CCCN)cc4)c[nH]3)cc2)CC1` [Compound 191], the MIC was less than 16 µg/mL.

Regarding `N=C(N)NCCCCN1CCC(c2c[nH]c(NC(=O)Nc3cc(F)c(F)cc3F)nc2=O)CC1` [Compound 546], the MIC was greater than 16 µg/mL.

Turning to `NCCCCCN1CCC(c2c[nH]c(Nc3nc4ccccc4[nH]3)nc2=O)CC1` [Compound 499], the MIC was greater than 16 µg/mL.

With `NCCCN(CCCN)Cc1ccc(-c2c[nH]c(NC(=O)Nc3cccc(Cl)c3Cl)nc2=O)cc1F` [Compound 307], the MIC is less than 16 µg/mL.

`O=C(Nc1nc(=O)c(-c2ccc(CNCCc3ccncc3)cc2)c[nH]1)Nc1cc(F)c(F)cc1F` [Compound 322]: the MIC is greater than 16 µg/mL.

For `CN(C(=O)C[C@H](CCCNC(=N)N)NC(=N)N)C1CNC(NC(N)=O)=NC1=O` (stereo partly shown) [Compound 105], the MIC is greater than 16 µg/mL.

On to `N=C(N)NCCCN(CCCN)Cc1ccc(-c2c[nH]c(NC(N)=O)nc2=O)cc1` [Compound 168], for which the MIC is less than 16 µg/mL.

In the case of `NCCCN(CCCN)Cc1ccc(-c2c[nH]c(NC(=O)Nc3ccc(F)c(F)c3)nc2=O)cc1` [Compound 171], the MIC is greater than 16 µg/mL.

For the compound `NCCCNCc1ccc(-c2c[nH]c(NC(=O)Nc3cc(Cl)c(Cl)cc3Cl)nc2=O)cc1F` [Compound 388], the MIC was greater than 16 µg/mL.

With `NCCCNCc1ccc(-c2c[nH]c(NC(=O)NCCc3nc4ccccc4[nH]3)nc2=O)cc1F` [Compound 555], the MIC is greater than 16 µg/mL.

Turning to `N=C(N)NCCC[C@H](N)CCCn1cnc(NC(N)=O)nc1=O` [Compound 133], the MIC is greater than 16 µg/mL.

Turning to `CN(C(=O)C[C@@H](N)CCCNC(=N)N)C1CNC(NC(=O)c2ccc(NC(=O)[C@@](C)(N)CO)cc2)=NC1=O` (stereo partly shown) [Compound 110], the MIC is less than 16 µg/mL.

Turning to `NCCCN(CCCN)Cc1ccc(-c2c[nH]c(NC(=O)Nc3cc(F)c(F)cc3F)nc2=O)cc1` [Compound 178], the MIC is greater than 16 µg/mL.

For the compound `NCCCCCN1CCN(c2c[nH]c(Nc3nc4ccccc4[nH]3)nc2=O)CC1` [Compound 514], the minimum inhibitory concentration (MIC) is greater than 16 µg/mL.

For `O=C(Nc1nc(=O)c(-c2ccc(CNCc3ccncc3)cc2)c[nH]1)Nc1ccccc1OC(F)(F)F` [Compound 319], the MIC is greater than 16 µg/mL.

As to `COc1cc([N+](=O)[O-])ccc1NC(=O)Nc1nc(=O)c(-c2ccc(CNCCCN)c(F)c2)c[nH]1` [Compound 415], the minimal inhibitory concentration (MIC) is greater than 16 µg/mL.

For the compound `NCCCCN1CCN(c2c[nH]c(Nc3nc4ccccc4[nH]3)nc2=O)CC1` [Compound 530], the MIC was greater than 16 µg/mL.

`NCCCNCc1ccc(-c2c[nH]c(NC(=O)Nc3cccc(Cl)c3Cl)nc2=O)cc1C(F)(F)F` [Compound 259]: the MIC was less than 16 µg/mL.

Consider `NCCCN(CCCCO)Cc1ccc(-c2c[nH]c(NC(=O)Nc3ccccc3OC(F)(F)F)nc2=O)cc1` [Compound 355], for which the MIC is less than 16 µg/mL.

In the case of `COc1ccc2nc(Nc3nc(=O)c(-c4ccc(CN(CCCN)CCCN)c(F)c4)c[nH]3)[nH]c2c1` [Compound 361], the MIC was less than 16 µg/mL.

For the compound `NCCCN(CCCN)Cc1ccc(-c2c[nH]c(Nc3nc4cc(F)c(F)cc4o3)nc2=O)cc1F` [Compound 356], the MIC was less than 16 µg/mL.

Consider `CN(C)c1ccc(NC(=O)Nc2nc(=O)c(-c3ccc(CN(CCCN)CCCN)cc3)c[nH]2)cc1` [Compound 188], for which the MIC is greater than 16 µg/mL.

`CN(CCCNCc1ccc(-c2c[nH]c(NC(=O)Nc3cc(F)c(F)cc3F)nc2=O)cc1)C(=N)N` [Compound 353]: the MIC is greater than 16 µg/mL.

Turning to `N=C(N)NCCCN(CCCN)Cc1ccc(-c2c[nH]c(NC(=O)NCCc3ccc(Cl)c(Cl)c3)nc2=O)cc1` [Compound 478], the minimum inhibitory concentration (MIC) was greater than 16 µg/mL.

As to `NCCCN(CCCc1cccnc1)Cc1ccc(-c2c[nH]c(NC(=O)Nc3cc(F)c(F)cc3F)nc2=O)cc1` [Compound 399], the MIC was greater than 16 µg/mL.

For `O=C(O)CCNCc1ccc(-c2c[nH]c(NC(=O)Nc3cc(F)c(F)cc3F)nc2=O)cc1` [Compound 315], the MIC was greater than 16 µg/mL.

Regarding `CCS(=O)(=O)c1ccc2oc(Nc3nc(=O)c(-c4ccc(CN(CCCN)CCCN)c(F)c4)c[nH]3)nc2c1` [Compound 427], the MIC is greater than 16 µg/mL.

In the case of `NCCCN[C@H]1CCN(C(=O)Cc2c[nH]c(NC(=O)Nc3ccccc3OC(F)(F)F)nc2=O)C1` [Compound 407], the MIC is greater than 16 µg/mL.

For `NCCCNCc1ccc(-c2c[nH]c(NC(=O)Nc3cccc(Cl)c3F)nc2=O)cc1F` [Compound 450], the MIC was less than 16 µg/mL.

Turning to `NCCCNCc1ccc(-c2c[nH]c(NC(=O)NCc3nc4ccccc4[nH]3)nc2=O)cc1F` [Compound 556], the MIC was greater than 16 µg/mL.

On to `NCCCN[C@@H]1CCN(CCc2c[nH]c(NC(=O)Nc3ccccc3OC(F)(F)F)nc2=O)C1` [Compound 384], for which the MIC was greater than 16 µg/mL.

Consider `N=C(N)NCCCC[C@@H](N)CCn1ccc(NC(N)=O)nc1=O` [Compound 124], for which the MIC was greater than 16 µg/mL.

In the case of `N=C(N)NCCC[C@H](N)CCCn1cnc(N)nc1=O` [Compound 114], the MIC is greater than 16 µg/mL.

Consider `NCCCNCc1ccc(-c2c[nH]c(Nc3nc4cc(F)c(F)cc4[nH]3)nc2=O)cc1F` [Compound 439], for which the MIC is less than 16 µg/mL.

For `NCCCNCc1c(F)cc(-c2c[nH]c(NC(=O)Nc3ccccc3OC(F)(F)F)nc2=O)cc1F` [Compound 285], the MIC was greater than 16 µg/mL.

As to `N=C(N)NCCC[C@@H](CCCn1ccc(NC(=O)Nc2cc(F)c(F)cc2F)nc1=O)NCCCN` [Compound 164], the MIC was greater than 16 µg/mL.

With `CC(N)(CO)C(=O)Nc1ccc(C(=O)Nc2ccn(CCC[C@H](CCCNC(=N)N)NCCCN)c(=O)n2)cc1` (stereo partly shown) [Compound 199], the MIC was less than 16 µg/mL.

As to `NCCCN(CCCN)Cc1ccc(-c2c[nH]c(NC(=O)Nc3ccccc3OC(F)(F)F)nc2=O)cc1` [Compound 256], the MIC is less than 16 µg/mL.

For `NC(=O)NC1CCN(CCC[C@@H](N)CCCO)C(=O)N1` (stereo partly shown) [Compound 136], the MIC was greater than 16 µg/mL.

Take `NCCCN(Cc1ccc(-c2c[nH]c(NC(=O)Nc3cc(F)c(F)cc3F)nc2=O)cc1)Cc1nccs1` [Compound 339]: the minimal inhibitory concentration (MIC) was greater than 16 µg/mL.

For `NCCCNCc1ccc(-c2c[nH]c(NC(=O)Nc3cc(Cl)cc(Cl)c3)nc2=O)cc1F` [Compound 387], the MIC was greater than 16 µg/mL.

In the case of `CC(C)=CCNCc1ccc(-c2c[nH]c(NC(=O)Nc3ccccc3OC(F)(F)F)nc2=O)cc1` [Compound 316], the MIC is greater than 16 µg/mL.

Take `NCCCNCc1ccc(-c2c[nH]c(NC(=O)NCCc3ccccc3OC(F)(F)F)nc2=O)cc1F` [Compound 512]: the MIC is greater than 16 µg/mL.

With `N=C(N)NCCC[C@@H](CCCn1ccc(NC(=O)NS(=O)(=O)c2ccc(F)cc2)nc1=O)NCCCN` [Compound 147], the MIC is greater than 16 µg/mL.

In the case of `NCCCN1CCC(c2c[nH]c(NC(=O)Nc3ccccc3OC(F)(F)F)nc2=O)CC1` [Compound 455], the MIC is greater than 16 µg/mL.

Consider `NCCCNCc1ccc(-c2c[nH]c(Nc3nc4cc(F)c(F)cc4o3)nc2=O)cc1` [Compound 454], for which the MIC is less than 16 µg/mL.

Regarding `N=C(N)NCCC[C@@H](CCCn1ccc(NC(=O)Nc2ccc(F)cc2F)nc1=O)NCCCN` [Compound 159], the MIC is greater than 16 µg/mL.

Turning to `NCCCN(CCC(=O)O)Cc1ccc(-c2c[nH]c(NC(=O)Nc3ccccc3OC(F)(F)F)nc2=O)cc1` [Compound 321], the MIC is greater than 16 µg/mL.

As for `Cc1[nH]c(NC(=O)Nc2ccccc2OC(F)(F)F)nc(=O)c1CC(=O)N1CCN(CCCN)CC1` [Compound 406], the MIC was greater than 16 µg/mL.

In the case of `O=C(Nc1nc(=O)c(-c2ccc(CNCCCc3cccnc3)cc2)c[nH]1)Nc1cc(F)c(F)cc1F` [Compound 373], the MIC was greater than 16 µg/mL.

In the case of `NCCCN(CCCN)Cc1ccc(-c2c[nH]c(Nc3nc4cc(F)c(F)cc4o3)nc2=O)cc1` [Compound 470], the MIC is less than 16 µg/mL.

Turning to `NCCCN(CCCN)Cc1ccc(-n2ccc(NC(N)=O)nc2=O)cc1` [Compound 145], the MIC was greater than 16 µg/mL.

For the compound `NCCCNCc1ccc(-c2c[nH]c(NC(=O)Nc3cccc(Cl)c3Cl)nc2=O)c(F)c1` [Compound 433], the MIC was less than 16 µg/mL.

Regarding `NCCCNCc1c(F)cc(-c2c[nH]c(NC(=O)Nc3cc(F)c(F)cc3F)nc2=O)cc1F` [Compound 287], the MIC was greater than 16 µg/mL.

With `NCCCNCc1ccc(-c2c[nH]c(NC(=O)NCCc3nc4cc(F)c(F)cc4[nH]3)nc2=O)cc1F` [Compound 554], the MIC was greater than 16 µg/mL.

Regarding `CSCCNCc1ccc(-c2c[nH]c(NC(=O)Nc3ccccc3OC(F)(F)F)nc2=O)cc1Cl` [Compound 260], the MIC is greater than 16 µg/mL.

Still in this assay, the particulars now being: Escherichia coli, ATCC25922, read-out: E. coli ATCC25922 MIC.
Regarding `CN(C(=O)C[C@H](CCCNC(=N)N)NC(=O)CCCO)C1CNC(NC(N)=O)=NC1=O` (stereo partly shown) [Compound 101], the MIC is greater than 16 µg/mL.
